Assay results from patent publication US5484778A, “Phthalocyanine photosensitizers for photodynamic therapy and methods for their use” (priority 1993, dated 1996).
“Also recorded” adds a separate entry of the source. Where two headings read alike, the source gives them in different places.

Key:
V79 cells [1] = assay: Uptake of additional phthalocyanines into V79 cells (Table 2); settings: for Uptake into V79 cells: 18 hours
Procedure: V79 cells Chinese hamster lung fibroblasts were cultured using the cell culture methods described above. […] When the filters were dry, the phthalocyanines were extracted into ethanol and the absorption determined at the peak wavelength, usually 668 nm.

[2] = Retention in tumor tissue (pharmacokinetics); settings: in vivo
V79 cells [3] = assay: Clonogenicity, killing of V79 cells using photodynamic therapy (Table 3); assay type: cell-based, Chinese hamster
Outline: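 V79 Chinese hamster lung fibroblasts were loaded with 0.5 or 1.0 μM phthalocyanine, then about 18 h later irradiated with increasing doses of 675 nm broad-band red light (tungsten-halogen lamp, 600 nm high-pass filter). Recorded value is the light dose killing 90% of cells, or, failing that, the maximum kill (% survival) and its dose.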

RIF-1 tumors = assay: PDT of RIF-1 implanted tumors with PcIV and multiple exposures to light (Table 8); assay type: in vivo, C3H/HeN mice; settings: for % of Mice Surviving: 1 mg/kg
Procedure: To overcome the regrowth, RIF-1 tumors were implanted in C3H/HeN mice, and the mice were treated with PcIV followed by multiple exposures to light. For multiple exposures to light to be successful, the tumor tissue must retain sufficient levels of the photosensitizer over the exposure period.
Thereafter, the tumors were irradiated with an argon ion pumped dye laser tuned at 675 nm for the total light dose of 135 J/cm^2 (75 mW/cm^2).

L5178Y-R (LY-R) cells = assay: Clonogenic survival of PDT-treated L5178Y-R cells (Tables 4 and 5, FIG. 3); assay type: cell-based, mouse; settings: for viability at 0.5 µM: Mus musculus, read-out: normalized plating efficiency / percent survival, 0.5 μM
Procedure: Mouse lymphoma L5178y-R (hereinafter also referred to as "LY-R") cells were grown in suspension culture as described in Ramakrishnan N., Oleinick, N. L. Clay, M. E., Horng, M. F., Antunez, A. R., and Evans H. H., DNA lesions and DNA degradation in mouse lymphoma L5178Y cells after photodynamic treatment sensitized by chloroaluminum phthalocyanine. Photochem. Photobiol. 50, 373-378, 1989 and Agarwal, M. L., Clay, M. E., Harvey, E. J., Evans, H. H., Antunez, A. R., and Oleinick, N. L. Photodynamic therapy induces rapid cell death by apoptosis in L5178Y mouse lymphoma cells. Cancer Res., 51, 5993-5996, 1991.
The cells were used while in exponential growth. Stock solutions of either 0.5 or 1 mM of PcIV, PcXII, PcX, PcXVIII were prepared in dimethylformamide unless otherwise indicated and added to the 10 mL medium at a rate of 1 μL per mL. After allowing 18 hours for uptake of the phthalocyanine into the cells, the flasks containing the cultures were placed on a glass exposure tray above a 500-W tungsten-halogen lamp. The exposure tray was fitted with a 600-nm high-pass filter. Flasks were exposed to various fluences of red light (up to 30 kJ/m^2) at a fluence rate of approximately 74 W/m^2). After irradiation, the cells were collected by centrifugation.
For measurement of clonogenic cell survival, aliquots were plated in medium containing soft agar as described in Ramakrishnan N., Oleinick, N. L. Clay, M. E., Horng, M. F., Antunez, A. R., and Evans H. H., DNA lesions and DNA degradation in mouse lymphoma L5178Y cells after photodynamic treatment sensitized by chloroaluminum phthalocyanine. Photochem. Photobiol. 50, 373-378, 1989. The aliquots were plated in sufficient numbers to produce 50-200 colonies. The dishes were kept in an incubator at 37° C. in an atmosphere of 5% CO2 and 95% air for 10-14 days to allow viable cells to form colonies. Colonies were counted by eye. Controls treated with the phthalocyanine alone had plating efficiencies of ~90%. The plating efficiencies of the treated cells are normalized to the plating efficiencies of control cells in each experiment. For measurement of the induction of apoptosis, DNA was isolated from the treated and control cells 2 hours after photodynamic therapy, subjected to electrophoresis on 1.5% agarose, stained with ethidium bromide, and visualized by UV transillumination, as described in Agarwal et. al. The results are shown in Tables 4, 5 and 6 and in FIG. 3.
In Table 4 each phthalocyanine was present at 0.5 μM, and the normalized plating efficiencies are presented as mean and standard deviation at each fluence tested. […] This relative activity of these four phthalocyanines is the same as obtained from screening in V79 cells.
PcXII when present in the culture medium at 0.5 μM requires less light, that is the lowest fluence, to kill either 50% […] of the cells. PcIV is about 80% as active as PcXII, PcX is 44% as active as PcXII and PcXVIII is 22% as active as PcXII.

Compound: CN(C)CCC[Si](C)(C)O[Si]1(O)n2c3c4ccccc4c2N=C2N=C(N=c4c5ccccc5c(n41)=NC1=NC(=N3)c3ccccc31)c1ccccc12 (centres unmarked) [Compound IV, HOSiPcOsi(CH3)2)(CH2)3 N(CH3)2]
- uptake by V79 cells (in words) (V79 cells [1]): taken up particulary well
- Uptake into V79 cells (V79 cells [1]; 1 μM): 0.7 ± 0.2 n Moles/10^6 cells
- Uptake into V79 cells (V79 cells [1]; 2 μM): 3.1 ± 0.3 n Moles/10^6 cells
- Uptake into V79 cells (V79 cells [1]; 4 μM): 4.6 ± 2.9 n Moles/10^6 cells
- Uptake into V79 cells, composite value (V79 cells [1]; average of all data): 1.1 n Moles/10^6 cells/μM
- Uptake (from Table 2) (V79 cells [1]; repeated in Table 3): 1.1 n Moles/10^6 cells/μM
- retention in tumor tissue after administration [2]: ≥ 7 days
- LD 90 (V79 cells [3]; 0.5 μM, 18 h, light dose killing 90% of cells): 4 kJ/m^2
- photosensitizing activity, killing V79 cells (in words) (V79 cells [3]; discussion of Table 3): most active at killing V79 cells
- % of Mice Surviving (RIF-1 tumors; 360 h): 100%
- % of Mice Surviving (RIF-1 tumors; 2880 h): 0%
- % of Mice Surviving (RIF-1 tumors; DPPC liposomes, 30 days, exposure day 2): 100%
- % of Mice Surviving (RIF-1 tumors; corn oil, 15 days, exposure day 2): 100%
- % of Mice Surviving (RIF-1 tumors; corn oil, 15 days, exposure days 2-6): 100%
- tumor regrowth (RIF-1 tumors; DPPC liposomes, 30 days after PDT, irradiated only one or two times): Tumor regrowth occurred 30 days after photodynamic therapy
- tumor regrowth (RIF-1 tumors; DPPC liposomes, 120 days after PDT, three to five exposures): No tumor regrowth occurred even at 120 days
- tumor regrowth (RIF-1 tumors; DPPC liposomes, 300 days after light treatment): no evidence of tumor regrowth
- tumor cure (RIF-1 tumors; DPPC liposomes, irradiated three, four or five times at 24 hour interval): complete tumor cure was evident
- tumor regrowth (RIF-1 tumors; corn oil, 15 days after PDT, all multiple exposure protocols): regrowth of tumors was evident 15 days after photodynamic therapy in all the multiple exposure protocols
- activity relative to PcXII (L5178Y-R (LY-R) cells; 0.5 μM, from Table 5): about 80%
- LD 90 (L5178Y-R (LY-R) cells; 0.5 μM, fluence reducing survival to 10%): 2.15 kJ/m^2
- LD50 (L5178Y-R (LY-R) cells; 0.5 μM, fluence reducing survival to 50%): 1.38 kJ/m^2
- photosensitizer activity in LY-R cells (in words) (L5178Y-R (LY-R) cells; 0.5 μM, listed as PcIV): active photosensitizers; also recorded: most active
- viability at 0.5 µM (L5178Y-R (LY-R) cells; 0 kJ/m^2): 100%
- viability at 0.5 µM (L5178Y-R (LY-R) cells; 1 kJ/m^2): 80.9%
- viability at 0.5 µM (L5178Y-R (LY-R) cells; 2 kJ/m^2): 19.7%
- viability at 0.5 µM (L5178Y-R (LY-R) cells; 2.5 kJ/m^2): 0.82%
- viability at 0.5 µM (L5178Y-R (LY-R) cells; 3 kJ/m^2): 0.16%
- viability at 0.5 µM (L5178Y-R (LY-R) cells; 5 kJ/m^2): 0.014%
